Results as given in patent US20260234165A1, “MACROCYCLIC COMPOUNDS, PREPARATION METHOD THEREFOR, AND USE THEREOF” (GENFLEET THERAPEUTICS (SHANGHAI) INC., priority 2004, published 2026).
Read-outs that look alike come from different tables or passages of the source.

Experiments:
Type in all cases: cell-based, human
[1] = test system: p-ERK in NCI-H441 cells (KRAS G12V mutation); experiment: Cell p-ERK assay (HTRF) in NCI-H441 cells; conditions: NCI-H441 cells, 3 h compound incubation, HTRF p-ERK T202/Y204, read-out: H441 p-ERK IC50
Method in brief: (§1)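 Seed 10000 AsPC-1 or 20000 NCI-H441 cells/well, overnight 37 °C/5% CO2. Cpd 3.16-fold series, 0.1% DMSO final, 3 h. Lyse 30 min, HTRF p-ERK (T202/Y204) Ab 4 h. IC50: 4-parameter fit of IR% normalised to DMSO and blank.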

NCI-H441 cells = experiment: 3D cell proliferation assay (CellTiter Glo-3D), NCI-H441; conditions: medium with 2% FBS, read-out: H441 AP IC50
Method in brief: (§2)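 Five-day treatment of NCI-H441 or AsPC-1 cells (800/well, 2% FBS RPMI-1640, 0.1% DMSO) with graded compound concentrations; ATP content by CellTiter-Glo 3D; IC50 fitted.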

[2] = test system: AsPC-1 cells (KRAS G12D mutation); experiment: 3D cell proliferation assay (CellTiter Glo-3D), AsPC-1; conditions: medium with 2% FBS, read-out: AsPC-1 AP IC50
Method in brief: as §2

[3] = test system: p-ERK in AsPC-1 cells (KRAS G12D mutation); experiment: Cell p-ERK assay (HTRF) in AsPC-1 cells; conditions: AsPC-1 cells, 3 h compound incubation, HTRF p-ERK T202/Y204, read-out: AsPC-1 p-ERK IC50
Method in brief: as §1

[4] = 3D cell proliferation (CellTiter Glo-3D)
[5] = Homo sapiens, NCI-H441, 3D cell proliferation (CellTiter Glo-3D)
[6] = Homo sapiens, ASPC1, 3D cell proliferation (CellTiter Glo-3D)

Row | Compound | IC50 [1] | IC50 (NCI-H441 cells; [4]) | IC50 [2, 4] | IC50 [3] | IC50 ([1]; Homo sapiens, NCI-H441, 3 h) | IC50 (NCI-H441 cells; [5]) | IC50 [2, 6] | IC50 ([3]; Homo sapiens, ASPC1, 3 h)
1 | CO[C@@H](C)c1ncc(OCCN2CCOC3(CC3)C2)cc1-c1c2c3cc(ccc3n1CC(F)(F)F)-c1csc(n1)C[C@H](NC(=O)[C@H]1[C@H](C)[C@@H]1C)C(=O)N1CCC[C@H](N1)C(=O)OCC1(CC1)C2 (atropisomer, axis not shown; (Ra)) [Compound Z380, (1r,2R,3S)—N-((3′S,4′S,Z)—(Ra)-2′-(5-(2-(4-oxa-7-azaspiro[2,5]octan-7-yl)ethoxy)-2-((S)-1-methoxyethyl)pyridin-3-yl)-5′,7′-dioxo-1′-(2,2,2-trifluoroethyl)spiro[cyclopropane-1,10′-8-oxa-2(4,2)-thiazola-1(5,3)-indola-6(1,3)-pyridazinacycloundecaphan]-4-yl)-2,3-dimethylcyclopropane-1-carboxamide] | 3.67 nM | 4.75 nM | 6.28 nM | 9.45 nM | – | – | – | –
2 | CCn1c(-c2cc(C#CCN3CC(F)C3)cnc2[C@H](C)OC)c2c3cc(ccc31)-c1csc(n1)C[C@H](NC(=O)[C@H]1[C@H](C)[C@@H]1C)C(=O)N1CCC[C@H](N1)C(=O)OCC(C)(C)C2 (atropisomer, axis not shown; (Ra)) [Compound Z383-1, (1r,2R,3S)—N-((6^3S,4S,Z)—(Ra)-1^2-(5-(3-(3-fluoroazetidin-1-yl)prop-1-yn-1-yl)-2-((S)-1-methoxyethyl)pyridin-3-yl)-1^1-ethyl-10,10-dimethyl-5,7-dioxo-6^1,6^2,6^3,6^4,6^5,6^6-hexahydro-1^1H-8-oxa-2(4,2)-thiazola-1(5,3)-indola-6(1,3)-pyridazinacycloundecaphane-4-yl)-2,3-dimethylcyclopropane-1-carboxamide] | 2.79 nM | 6.04 nM | 5.52 nM | 7.39 nM | – | – | – | –
3 | CCn1c(-c2cc(N3CCN(C)CC3)cnc2[C@H](C)OC)c2c3cc(ccc31)-c1csc(n1)C[C@H](Nc1nnc3ccc(C)cn13)C(=O)N1CCC[C@H](N1)C(=O)OCC(C)(C)C2 (atropisomer, axis not shown; (Ra)) [Compound Z434, (6^3S,4S,Z)-1^1-ethyl-(Ra)-1^2-(2-((S)-1-methoxyethyl)-5-(4-methylpiperazin-1-yl)pyridin-3-yl)-10,10-dimethyl-4-((6-methyl-[1,2,4]triazolo[4,3-a]pyridin-3-yl)amino)-6^1,6^2,6^3,6^4,6^5,6^6-hexahydro-1^1H-8-oxa-2(4,2)-thiazola-1(5,3)-indola-6(1,3)-pyridazinacycloundecaphane-5,7-dione] | – | – | – | – | 17.5 nM | 18.1 nM | 104 nM | 69.4 nM
4 | CCn1c(-c2cc(N3CCN(C)CC3)cnc2[C@H](C)OC)c2c3cc(ccc31)-c1csc(n1)C[C@H](Nc1nnc3ccccn13)C(=O)N1CCC[C@H](N1)C(=O)OCC(C)(C)C2 (atropisomer, axis not shown; (Ra)) [Compound Z460, (6^3S,4S,Z)-4-([1,2,4]triazolo[4,3-a]pyridin-3-ylamino)-1^1-ethyl-(Ra)-1^2-(2-((S)-1-methoxyethyl)-5-(4-methylpiperazin-1-yl)pyridin-3-yl)-10-O-dimethyl-6^1,6^2,6^3,6^4,6^5,6^6-hexahydro-1^1H-8-oxa-2(4,2)-thiazola-1(5,3)-indola-6(1,3)-pyridazinacycloundecaphane-5,7-dione] | – | – | – | – | 6.3 nM | 14.3 nM | 73.4 nM | 26.2 nM
5 | CO[C@@H](C)c1ncc(OCCN2CCOC3(CC3)C2)cc1-c1c2c3cc(ccc3n1C(C)C)-c1csc(n1)C[C@H](NC(=O)[C@H]1[C@H](C)[C@@H]1C)C(=O)N1CCC[C@H](N1)C(=O)OCC1(CC1)C2 (atropisomer, axis not shown; (Ra)) [Compound Z462, (1r,2R,3S)—N-((3′S,4′S,Z)-2′-(5-(2-(4-oxa-7-azaspiro[2,5]octan-7-yl)ethoxy)-(Ra)-2-((S)-1-methoxyethyl)pyridin-3-yl)-1′-isopropyl 5′,7′-dioxospiro[cyclopropane-1,10′-8-oxa-2(4,2)-thiazola-1(5,3)-indola-6(1,3)-pyridazinacycloundecaphan]-4′-yl)-2,3-dimethylcyclopropane-1-carboxamide] | – | – | – | – | 1.12 nM | 1.37 nM | 2.72 nM | 1.6 nM
6 | CCn1c(-c2cc(OCC3(N4CCCOCC4)CC3)cnc2[C@H](C)OC)c2c3cc(ccc31)-c1csc(n1)C[C@H](NC(=O)[C@H]1[C@H](C)[C@@H]1C)C(=O)N1CCC[C@H](N1)C(=O)OCC1(CC1)C2 (atropisomer, axis not shown; (Ra)) [Compound Z464, (1r,2R,3,S)—N-((3′S,4′S,Z)—(Ra)-2′-(5-((1-(1,4-oxazepan-4-yl)cyclopropyl)methoxy)-2-((S)-1-methoxyethyl)pyridin-3-yl)-1′-ethyl-5′,7′-dioxospiro[cyclopropane-1,10′-8-oxa-2(4,2)-thiazola-1(5,3)-indola-6(1,3)-pyridazinacycloundecaphan]-4′-yl)-2,3-dimethylcyclopropane-1-carboxamide] | 1.9 nM | 6.32 nM | 15 nM | 3.03 nM | – | – | – | –
7 | CCn1c(-c2cc(OCC3(CN4CCCOCC4)CC3)cnc2[C@H](C)OC)c2c3cc(ccc31)-c1csc(n1)C[C@H](NC(=O)[C@H]1[C@H](C)[C@@H]1C)C(=O)N1CCC[C@H](N1)C(=O)OCC1(CC1)C2 (atropisomer, axis not shown; (Ra)) [Compound Z498] | – | – | – | – | 4.06 nM | 5.58 nM | 8.99 nM | 10.9 nM

Other lines, results leading:

Row | IC50 [1] | IC50 (NCI-H441 cells; [4]) | IC50 [2, 4] | IC50 [3] | IC50 ([1]; Homo sapiens, NCI-H441, 3 h) | IC50 (NCI-H441 cells; [5]) | IC50 [2, 6] | IC50 ([3]; Homo sapiens, ASPC1, 3 h) | Compound
8 | 0.35 nM | – | – | 0.11 nM | – | 0.09 nM | 0.24 nM | – | CCn1c(-c2cc(OCCN3CCS(=O)(=O)CC3)cnc2[C@H](C)OC)c2c3cc(ccc31)-c1csc(n1)C[C@H](NC(=O)[C@H]1[C@H](C)[C@@H]1C)C(=O)N1CCC[C@H](N1)C(=O)OCC(C)(C)C2 (atropisomer, axis not shown; (Ra)) [Compound Z469, (0r,2R,3S)—N-((6^3S,4S,Z)—(Ra)-1^2-(5-(2-(1,1-dioxidothiomorpholino)ethoxy)-2-((S)-1-methoxyethyl)pyridin-3-yl)-1^1-ethyl-10,10-dimethyl-5,7-dioxo-6^1,6^2,6^3,6^4,6^5,6^6-hexahydro-1^1H-8-oxa-2(4,2)-thiazola-1(5,3)-indola-6(1,3)-pyridazinacycloundecaphane-4-yl)-2,3-dimethylcyclopropane-1-carboxamide]
9 | – | – | – | – | 0.67 nM | 0.59 nM | 3.19 nM | 1.3 nM | CCn1c(-c2cc(CC3(N4CCS(=O)(=O)CC4)CC3)cnc2[C@H](C)OC)c2c3cc(ccc31)-c1csc(n1)C[C@H](NC(=O)[C@H]1[C@H](C)[C@@H]1C)C(=O)N1CCC[C@H](N1)C(=O)OCC(C)(C)C2 (atropisomer, axis not shown; (Ra)) [Compound Z484, (1r,2R,3S)—N-((6^3S,4S,Z)—(Ra)-1^2-(5-((1-(1,1-dioxidothiomorpholino)cyclopropyl)methyl)-2-((S)-1-methoxyethyl)pyridin-3-yl)-1^1-ethyl-10,10-dimethyl-5,7-dioxo-6^1,6^2,6^3,6^4,6^5,6^6-hexahydro-1^1H-8-oxa-2(4,2)-thiazola-1(5,3)-indola-6(1.3)-pyridazinacycloundecaphane-4-yl)-2,3-dimethylcyclopropane-1-carboxamide]
10 | – | – | – | – | 0.35 nM | 0.42 nM | 0.96 nM | 0.73 nM | CCn1c(-c2cc(CCN3CCS(=O)(=O)CC3)cnc2[C@H](C)OC)c2c3cc(ccc31)-c1csc(n1)C[C@H](NC(=O)[C@H]1[C@H](C)[C@@H]1C)C(=O)N1CCC[C@H](N1)C(=O)OCC(C)(C)C2 (atropisomer, axis not shown; (Ra)) [Compound Z485, (1r,2R,3S)—N-((6^3S,4S,Z)—(Ra)-1^2-(5-(2-(1,1-dioxidothiomorpholino)ethyl)-2-((S)-1-methoxyethyl)pyridin-3-yl)-11-ethyl-10,10-dimethyl-5,7-dioxo-6^1,6^2,6^3,6^4,6^5,6^6-hexahydro-1^1H-8-oxa-2(4,2)-thiazola-1(5,3)-indola-6(1,3)-pyridazinacycloundecaphane-4-yl)-2,3-dimethylcyclopropane-1-carboxamide]
11 | – | – | – | – | 0.22 nM | 0.22 nM | 0.52 nM | 0.35 nM | [2H]C([2H])([2H])C1(C([2H])([2H])[2H])COC(=O)[C@@H]2CCCN(N2)C(=O)[C@@H](NC(=O)[C@H]2[C@H](C)[C@@H]2C)Cc2nc(cs2)-c2ccc3c(c2)c(c(-c2cc(OCCN4CCOC5(CC5)C4)cnc2[C@H](C)OC)n3CC)C1 (atropisomer, axis not shown; (Ra)) [Compound Z501, (1r,2R,3S)—N-((6^3S,4S,Z)-1^1-ethyl-(Ra)-1^2-(5-(2-(4-oxa-7-azaspiro[2.5]octan-7-yl)ethoxy)-2-((S)-1-methoxyethyl)pyridin-3-yl)-10,10-bis(methyl-d3)-5,7-dioxo-6^1,6^2,6^3,6^4,6^5,6^6-hexahydro-11H-8-oxo-2(4,2)-thiazola-1(5,3)-indola-6(1,3)-pyridazinacycloundecaphane-4-yl)-2,3-dimethylcyclopropane-1-carboxamide]
